Results taken from patent US20080248134A1, “Oral compositions, use and combinations of N-[2-(dimethylamino)ethyl]-2,6 dimethyl-1-oxo-1,2-dihydrobenzo[b]-1,6-naphthyridine-4-carboxamide and closely related analogues thereof” (Auckland Uniservices Limited, priority 2005, published 2008).

Legend:
AuxB1 = assay: In vitro susceptibility to multidrug resistance, continuous exposure IC50; type: cell-based, Chinese Hamster; conditions: Cricetulus griseus, AuxB1 (no multidrug resistance)
Method: (§1) Multidrug resistance mediated by p-glycoprotein and related transport proteins is an important means by which cancer cells evade cytotoxic drugs. […] IC50 values of several drugs were measured in continuous exposure assays in these two cell lines. The resistance factor was calculated as the ratio of these values. High values indicate high susceptibility to resistance.

CHrC5 = assay: as above; type: cell-based, Chinese Hamster; conditions: for IC50: Cricetulus griseus, CHrC5 (multidrug resistant), continuous exposure; for Resistance factor: ratio of IC50 values in CHrC5 and AuxB1
Method: as §1

HCT116p53+ = assay: In vitro cell proliferation assay, continuous drug exposure; type: cell-based; conditions: Homo sapiens, continuous drug exposure 3-5 days
Text: (§2) The results with the JLA and JLD lines, which have reduced topoisomerase II content as compared to the parental Jurkat line, indicate that the IC50 value of the compound is increased with decreased topoisomerase content. This is also the case for etoposide, amsacrine, DACA and doxorubicin.

HCT116p53− = assay: as above; type: cell-based; conditions: Homo sapiens, continuous drug exposure 3-5 days
Text: as §2

Jurkat = assay: as above; type: cell-based; conditions: Homo sapiens, continuous drug exposure 3-5 days
Text: as §2

JLA = assay: as above; type: cell-based; conditions: Homo sapiens; JLA (reduced topoisomerase II), continuous drug exposure 3-5 days
Text: as §2

JLD = assay: as above; type: cell-based; conditions: Homo sapiens; JLD (reduced topoisomerase II), continuous drug exposure 3-5 days
Text: as §2

[1] = data taken from the literature; cited from earlier work
[2] = tested on: p53, p21 and Fas in HCT116 (TP53 wild type); assay: Induction of the p53 pathway, western blotting; type: cell-based, human
Text: The p53 protein is thought to play a major role in the induction of apoptosis in tumour cells (Levine A J. p53, the cellular gatekeeper for growth and division. Cell. 1997. 88(3):323-331). The p53 protein is a transcriptional activator, which acts in response to DNA damage and other stress pathways, and increases expression of proteins such as Fas and p21^WAF1. […] Products were detected by western blotting.

Jurkat LA = assay: Human tumour xenograft; type: in vivo; conditions: Leukaemia, comparison drug
Method: (§3) The compound of Formula II was evaluated in a number of xenografts using cell lines derived from cervical, endometrial, lung and colon carcinomas, leukaemia and melanoma (Table 3). These studies indicate that the compound according to the present invention has significant activity in xenografts.

NZEN1 = assay: Human tumour xenograft; type: in vivo; conditions: NZEN1, Endometrium; comparison drug
Method: as §3

[3] = tested on: survivin in HCT116 (TP53 wild type); assay: Inhibition of survivin production, western blotting; type: cell-based, human; conditions: various concentrations, 24 hours
Method: Survivin is a protein that is expressed selectively in many types of cancer cells and which is known to be associated with resistance to apoptosis (Zaffaroni N and Daidone M G. Survivin expression and resistance to anticancer treatments: perspectives for new therapeutic interventions. Drug Resistance Updates: Reviews and Commentaries in Antimicrobial and Anticancer Chemotherapy. 2002 5(2):65-72). […] Extracts were prepared, proteins were separated by electrophoresis and survivin expression was determined by western blotting.

NZC1 = assay: Human tumour xenograft; type: in vivo; conditions: NZC1, Cervix; comparison drug
Method: as §3

NZMp2 = assay: Human tumour xenograft; type: in vivo; conditions: NZMp2, Melanoma; comparison drug
Method: as §3

NZM10 = assay: Human tumour xenograft; type: in vivo; conditions: NZM10, Melanoma; comparison drug
Method: as §3

NZM3 = assay: Human tumour xenograft; type: in vivo; conditions: NZM3, Melanoma; comparison drug
Method: as §3

NZM4 = assay: Human tumour xenograft; type: in vivo; conditions: NZM4, Melanoma; comparison drug
Method: as §3

SMILES	IC50 (AuxB1)	IC50 (CHrC5)	Resistance factor (CHrC5)	IC50 (HCT116p53+)	IC50 (HCT116p53−)	IC50 (Jurkat)	IC50 (JLA)	IC50 (JLD)	accumulation in tumour tissue versus liver tissue and plasma [1]	induction of p53, p21 and Fas ([2]; 24 hours at higher cell density (approaching confluence))	induction of p53, p21 and Fas ([2]; 24 hours exposure)	induction of p53, p21 and Fas ([2]; earlier times (4-10 hours))	Comparison (Jurkat LA)	Comparison (NZEN1)	survivin expression [3]	Comparison (NZC1)	Comparison (NZMp2)	Comparison (NZM10)	Comparison (NZM3)	Comparison (NZM4)
COc1cc(NS(C)(=O)=O)ccc1Nc1c2ccccc2nc2ccccc12 [Amsacrine]	0.019 µM	0.11 µM	5.6	0.025 µM	0.052 µM	0.037 µM	3.1 µM	2.7 µM	accumulate more in the liver tissue than tumour tissue	–	–	–	–	–	–	–	–	–	–	–
CN(C)CCNC(=O)c1cccc2cc3ccccc3nc12.Cl.Cl [DACA, N-[2-(dimethylamino)ethyl]acridine-4-carboxamide dihydrochloride]	0.125 µM	0.216 µM	1.6	0.36 µM	0.51 µM	0.58 µM	1.1 µM	2.5 µM	relatively evenly spread throughout each tissue and plasma	–	–	–	–	–	–	–	–	–	–	–
COc1cccc2c1C(=O)c1c(O)c3c(c(O)c1C2=O)C[C@@](O)(C(=O)CO)C[C@@H]3O[C@H]1C[C@H](N)[C@H](O)[C@H](C)O1 [Doxorubicin]	0.053 µM	6.1 µM	114	0.0105 µM	0.021 µM	0.0096 µM	0.042 µM	0.27 µM	–	did not	induced p53, p21 and Fas in dose-dependent fashions	did not	inactive	inactive	only small effects	–	–	–	–	–
COc1cc([C@@H]2c3cc4c(cc3[C@@H](O[C@@H]3O[C@@H]5CO[C@@H](C)O[C@H]5[C@H](O)[C@H]3O)[C@H]3COC(=O)[C@H]23)OCO4)cc(OC)c1O [Etoposide]	1.19 µM	8.6 µM	7.2	0.21 µM	0.39 µM	0.16 µM	2.08 µM	14.4 µM	–	–	–	–	–	–	only small effects	active	active	active	active	active
CNC(=O)c1cccc2c(Nc3ccc(NS(C)(=O)=O)cc3OC)c3cccc(C)c3nc12 [asulacrine, 9-((2-methoxy-4-[(methylsulfonyl)-amino]phenyl)amino)-N,5-dimethyl-4-acridinecarboxamide]	–	–	–	–	–	–	–	–	accumulate more in the liver tissue than tumour tissue	–	–	–	–	–	–	–	–	–	–	–
